{"source": "patent US11021464B2", "about": "“Crystalline forms of 4-(tert-butoxyamino)-6-(6-(trifluoromethyl)pyridin-2-yl)-N-(2-(trifluoromethyl)pyridin-4-yl)-1,3,5-triazin-2-amine methanesulfonic acid salt” (CHIA TAI TIANQING PHARMACEUTICAL GROUP CO., LTD., priority 2017, dated 2021)", "key": {"IDH2 (R172K, 40-end)": {"biological_target": "T1, IDH2 (R172K, 40-end) (Homo sapiens, UniProt P48735, R172K)", "T1 sequence (P48735 40-452 R172K)": "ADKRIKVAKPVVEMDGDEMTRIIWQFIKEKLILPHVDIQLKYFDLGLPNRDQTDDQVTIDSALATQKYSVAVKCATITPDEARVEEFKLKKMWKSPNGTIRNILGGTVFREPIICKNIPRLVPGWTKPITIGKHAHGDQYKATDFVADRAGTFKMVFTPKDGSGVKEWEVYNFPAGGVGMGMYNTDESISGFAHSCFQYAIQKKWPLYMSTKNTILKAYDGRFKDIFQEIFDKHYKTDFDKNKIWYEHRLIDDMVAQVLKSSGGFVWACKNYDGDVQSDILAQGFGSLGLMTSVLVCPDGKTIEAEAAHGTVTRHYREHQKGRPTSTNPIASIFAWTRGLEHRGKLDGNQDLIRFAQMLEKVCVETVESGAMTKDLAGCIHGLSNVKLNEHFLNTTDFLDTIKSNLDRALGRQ", "test": "Inhibitory activity test against IDH2 (NADPH decrease, diaphorase/resazurin fluorescence)", "type": "biochemical", "description": "The inhibitory activity of the compound of the present application against IDH2 (R172K, 40-end) was determined by using the following method.\nThe inhibitory activity of a compound against IDH2 (R172K, 40-end) was determined by the decrease of a helper factor NADPH (reduced coenzyme II). The test compound was pre-incubated with an enzyme and NADPH, and then a reaction was initiated by the addition of a-KG, and performed for 120 minutes under a linear condition. Then, the reaction was terminated by the addition of diaphorase (lipoamide dehydrogenase) and the corresponding substrate resazurin. Diaphorase terminated the IDH2m reaction by decreasing the available helper factor NADPH, which oxidized NADPH to NADP (oxidized coenzyme II), and reduced resazurin to highly fluorescent resorufin. The amount of remaining helper factor NADPH after a specific reaction time was quantified via an easily detectable fluorophore.\nSpecifically, 2.5 μl of a 3-fold gradient diluted test compound was added to a 384-well plate, and then 5 μl of a reaction buffer (20 mM Tris-HCl, PH7.5; 150 mM NaCl; 10 mM MgCl2; 10 mM MnCl2; 0.4 mg/ml BSA and 2 mM DTT) containing 80 nM IDH2 (R172K, 40-end) and 40 μM NADPH was added. Then, the resulting test mixture was incubated for 120 minutes at a temperature of 23° C., and then 2.5 μl of the reaction buffer containing 4 mM a-KG was added to initiate the reaction. After incubating for 120 minutes at room temperature, 5 μl of a termination mixture (0.4 U/ml diaphorase and 40 μM resazurin) prepared with the reaction buffer was added to convert resazurin to resorufin to determine the remaining NADPH."}, "[1]": {"system": "relapsed and refractory AML", "settings": "cited from earlier work"}, "[2]": {"test": "Pharmacokinetic test in rats, single intragastric dose of 5 mg/kg", "type": "in vivo", "settings": "male rats", "description": "Healthy male adult rats (7-9 weeks old) were used, each group of animals (3 male rats) was intragastrically administered once at a single dose of 5 mg/kg. The animals in the intragastric administration group were fasted overnight before this study. The fasting time period was from 10 hours before administration to 4 hours after administration.\nBlood samples were taken at 0.25, 0.5, 1, 2, 4, 6, 8 and 24 h after administration. The animals were anesthetized with isoflurane using a small animal anesthesia machine, and then 0.3 mL whole blood samples were taken from the fundus venous plexus. The blood samples were placed in heparin anticoagulant tubes, and centrifuged for 5 min at 4° C. and 4000 rpm. The resulting plasma samples were transferred to centrifuge tubes, and stored at −80° C. until analysis.\nVerified liquid chromatography-tandem mass spectrometry (LC-MS/MS) method was used to analyze the plasma samples. Plasma concentration-time data of individual animals were analyzed using WinNonlin (Professional Edition, version 6.3; Pharsight Company) software. The non-compartmental model was introduced for concentration analysis. The pharmacokinetic parameters (PK parameters) of the compounds were calculated."}, "[3]": {"test": "Hygroscopicity test of various salts (Chinese Pharmacopoeia 2010, Part II, Appendix XIX J)", "type": "physicochemical", "settings": "HR = 80% ± 2", "description": "The various acid addition salts of the compound of Formula I were tested according to “Guiding Principles for Drug Hygroscopicity Test” described in the Chinese Pharmacopoeia, 2010 edition, Part II, Appendix XIX J. The increased weights by hygroscopy of the samples were calculated respectively, and the results are shown in Table 11."}, "[4]": {"test": "Stability test of various salts, high temperature and high humidity (Chinese Pharmacopoeia 2010, Part II, Appendix XIX C)", "type": "physicochemical", "settings": "for Purity before test: before high temperature and high humidity test", "description": "The stability of the various acid addition salts of the compound of Formula I were tested according to the method described in the Chinese Pharmacopoeia, 2010 edition, Part II, Appendix XIX C."}, "[5]": {"test": "Pharmacokinetic test in SD rats, intragastric 50 mg/kg of salts and crystalline forms", "type": "in vivo", "settings": "50 mg/kg (in free base)", "description": "Number and gender: 20, males;\nTwenty male SPF SD rats were randomly divided into 4 groups, fasted (free access to water) overnight, and then intragastrically administered with 50 mg/kg of the crystalline Form I of the mesylate of the compound of Formula I (Example 11), 50 mg/kg of the crystalline Form II of the mesylate of the compound of Formula I (Example 12), 50 mg/kg of the crystalline Form VIII of the mesylate of the compound of Formula I (Example 19) and 50 mg/kg of the hydrochloride salt of the compound of Formula I (Example 7), respectively (in basic group). Blood samples (0.2˜0.3 mL) were taken from the orbital of the rats at the blood collection time points 0.25 h, 0.5 h, 1 h, 2 h, 3 h, 4 h, 6 h, 8 h, 10 h, 24 h, 30 h and 48 h after administration. The whole blood collected was then placed in EDTA-K2 centrifuge tubes, stored at 4° C., and centrifuged for 10 min at a speed of 4000 rpm at 4° C. within 0.5 h to separate plasma. After the collection of all the plasma, it was stored at −20° C. within 1 h. Pharmacokinetic parameters (PK parameters) were calculated using DAS 3.2.1 software according to the non-compartment statistical moment theory, and the results are shown in Table 15."}, "[6]": {"settings": "listed as The crystalline Form VIII of the mesylate of the compound of Formula I, 50 mg/kg"}, "[7]": {"settings": "male, SD, rat, plasma, po, 50 mg/kg"}, "[8]": {"settings": "listed as The crystalline Form II of the mesylate of the compound of Formula I, 50 mg/kg"}}, "note": "Like-named read-outs stand apart in the source and are kept apart here."}
{"compound": "CC(C)(O)CNc1nc(Nc2ccnc(C(F)(F)F)c2)nc(-c2cccc(C(F)(F)F)n2)n1", "note": "[AG-221, Enasidenib]", "values": [{"measurement": "IC50", "setting": "IDH2 (R172K, 40-end)", "result": 68, "unit": "nM"}, {"measurement": "complete remission rate (CR)", "setting": "[1]", "result": "up to 27%"}, {"measurement": "overall response rate (ORR)", "setting": "[1]", "result": "up to 41%"}, {"measurement": "effective patients who insist on the treatment for at least 6 months", "setting": "[1]; effective patients", "result": 76, "unit": "%"}, {"measurement": "effective patients with a stable condition", "setting": "[1]; effective patients", "result": 44, "unit": "%"}]}
{"compound": "CC(C)(C)ONc1nc(Nc2ccnc(C(F)(F)F)c2)nc(-c2cccc(C(F)(F)F)n2)n1", "note": "[The compound of Formula I, 4-(tert-butoxyamino)-6-(6-(trifluoromethyl)pyridin-2-yl)-N-(2-(trifluoromethyl)pyridin-4-yl)-1,3,5-triazin-2-amine]", "values": [{"measurement": "inhibitory activity compared with AG-221 (in words)", "setting": "IDH2 (R172K, 40-end); IDH2 (R172K, 40-end)", "result": "better inhibitory activity than AG-221"}, {"measurement": "IC50", "setting": "IDH2 (R172K, 40-end); IDH2 (R172K, 40-end), 80 nM enzyme, 40 μM NADPH, read-out: IC50", "result": 32, "unit": "nM"}, {"measurement": "half-life (in words)", "setting": "[2]", "result": "long half-life"}, {"measurement": "plasma concentration compared with AG-221 at the same dosage (in words)", "setting": "[2]", "result": "higher than AG-221"}]}
{"compound": "CC(C)(C)ONc1nc(Nc2ccnc(C(F)(F)F)c2)nc(-c2cccc(C(F)(F)F)n2)n1.Cl", "note": "[The hydrochloride salt (Example 7)]", "values": [{"measurement": "Increased Weights by Hygroscopy", "setting": "[3]", "result": 0.9, "unit": "%"}, {"measurement": "Purity after high temperature and high humidity test", "setting": "[4]", "result": 99.62, "unit": "%"}, {"measurement": "Purity before test", "setting": "[4]", "result": 98.85, "unit": "%"}, {"measurement": "AUC(0-t)", "setting": "[5]", "result": 48570.9, "unit": "ng·h/mL"}, {"measurement": "AUC(0-∞)", "setting": "[5]", "result": 55252.1, "unit": "ng·h/mL"}, {"measurement": "Cmax", "setting": "[5]", "result": 1642, "unit": "ng/mL"}, {"measurement": "MRT(0-t)", "setting": "[5]", "result": 18.02, "unit": "h"}, {"measurement": "T1/2", "setting": "[5]", "result": 13.67, "unit": "h"}, {"measurement": "Tmax", "setting": "[5]", "result": 10.6, "unit": "h"}]}
{"compound": "CC(C)(C)ONc1nc(Nc2ccnc(C(F)(F)F)c2)nc(-c2cccc(C(F)(F)F)n2)n1.O=S(=O)(O)O", "note": "[The sulfate (Example 8)]", "values": [{"measurement": "Increased Weights by Hygroscopy", "setting": "[3]", "result": 1.3, "unit": "%"}, {"measurement": "Purity after high temperature and high humidity test", "setting": "[4]", "result": 93.58, "unit": "%"}, {"measurement": "Purity before test", "setting": "[4]", "result": 99.30, "unit": "%"}]}
{"compound": "CC(C)(C)ONc1nc(Nc2ccnc(C(F)(F)F)c2)nc(-c2cccc(C(F)(F)F)n2)n1.Cc1ccc(S(=O)(=O)O)cc1", "note": "[The p-toluenesulfonate (Example 9)]", "values": [{"measurement": "Increased Weights by Hygroscopy", "setting": "[3]", "result": 0.7, "unit": "%"}, {"measurement": "Purity after high temperature and high humidity test", "setting": "[4]", "result": 97.63, "unit": "%"}, {"measurement": "Purity before test", "setting": "[4]", "result": 98.79, "unit": "%"}]}
{"compound": "CC(C)(C)ONc1nc(Nc2ccnc(C(F)(F)F)c2)nc(-c2cccc(C(F)(F)F)n2)n1.CS(=O)(=O)O", "note": "[4-(tert-butoxyamino)-6-(6-(trifluoromethyl)pyridin-2-yl)-N-(2-(trifluoromethyl)pyridin-4-yl)-1,3,5-triazin-2-amine methanesulfonic acid salt]", "values": [{"measurement": "Increased Weights by Hygroscopy", "setting": "[3]", "result": 1.0, "unit": "%"}, {"measurement": "Purity after high temperature and high humidity test", "setting": "[4]", "result": 99.22, "unit": "%"}, {"measurement": "Purity before test", "setting": "[4]", "result": 98.82, "unit": "%"}, {"measurement": "AUC(0-t)", "setting": "[5]; [6]", "result": 42249, "unit": "ng·h/mL"}, {"measurement": "AUC(0-∞)", "setting": "[5]; [6]", "result": 43976, "unit": "ng·h/mL"}, {"measurement": "Cmax", "setting": "[5]; [6]", "result": 2102, "unit": "ng/mL"}, {"measurement": "MRT(0-t)", "setting": "[5]; [6]", "result": 15.0, "unit": "h"}, {"measurement": "T1/2", "setting": "[5]; [6]", "result": 9.53, "unit": "h"}, {"measurement": "Tmax", "setting": "[5]; [6]", "result": 8.80, "unit": "h"}, {"measurement": "AUC(0-inf)", "setting": "[5]; [7]", "result": 47400, "unit": "ng·h/mL"}, {"measurement": "half-life", "setting": "[5]; [7]", "result": 10.4, "unit": "h"}, {"measurement": "AUC(0-t)", "setting": "[5]; male, SD, rat, plasma, po, 50 mg/kg, read-out: AUC(0-t)", "result": 43900, "unit": "ng·h/mL"}, {"measurement": "Cmax", "setting": "[5]; male, SD, rat, plasma, po, 50 mg/kg, read-out: Cmax", "result": 1730, "unit": "ng/mL"}, {"measurement": "MRT last", "setting": "[5]; male, SD, rat, plasma, po, 50 mg/kg, read-out: MRT(0-t)", "result": 16.5, "unit": "h"}, {"measurement": "Tmax", "setting": "[5]; male, SD, rat, plasma, po, 50 mg/kg, read-out: Tmax", "result": 6.6, "unit": "h"}]}
{"compound": "CC(C)(C)ONc1nc(Nc2ccnc(C(F)(F)F)c2)nc(-c2cccc(C(F)(F)F)n2)n1.CS(=O)(=O)O", "note": "[The mesylate (Example 12), 4-(tert-butoxyamino)-6-(6-(trifluoromethyl)pyridin-2-yl)-N-(2-(trifluoromethyl)pyridin-4-yl)-1,3,5-triazin-2-amine methanesulfonic acid salt]", "values": [{"measurement": "AUC(0-t)", "setting": "[5]; [8]", "result": 42249, "unit": "ng·h/mL"}, {"measurement": "AUC(0-∞)", "setting": "[5]; [8]", "result": 43976, "unit": "ng·h/mL"}, {"measurement": "Cmax", "setting": "[5]; [8]", "result": 2102, "unit": "ng/mL"}, {"measurement": "MRT(0-t)", "setting": "[5]; [8]", "result": 15.0, "unit": "h"}, {"measurement": "T1/2", "setting": "[5]; [8]", "result": 9.53, "unit": "h"}, {"measurement": "Tmax", "setting": "[5]; [8]", "result": 8.80, "unit": "h"}]}
{"compound": "CC(C)(C)ONc1nc(Nc2ccnc(C(F)(F)F)c2)nc(-c2cccc(C(F)(F)F)n2)n1.O=C(O)/C=C\\C(=O)O", "note": "[Maleate (Example 10)]", "values": [{"measurement": "Increased Weights by Hygroscopy", "setting": "[3]", "result": 2.2, "unit": "%"}]}
